Laboratory results: PMC7506137, “Selective Phosphodiesterase 1 Inhibitor BTTQ Reduces Blood Pressure in Spontaneously Hypertensive and Dahl Salt Sensitive Rats: Role of Peripheral Vasodilation” (Frontiers in Physiology, 2020)
Like-named read-outs stand apart in the source and are kept apart here.

Experiment: Plasma exposure (dried blood spot) after single oral dose
Type: in vivo
Conditions: male, Sprague Dawley, rat, whole blood (dried blood spot), po
Procedure: Male Sprague Dawley rats at 6 to 7 weeks were dosed orally by p.o. gavage with different doses of BTTQ formulated in 1% hydroxyethlycellulose (Dow Corning, Midland, MI, United States) (w/v), 0.25% polysorbate 80 (Sigma-Aldrich, St. Louis, MO, United States) (v/v), and 0.05% antifoam (v/v; Dow Corning, Midland, MI, United States) in purified water. Following dosing, ear temperature was measured by using a k-type thermocouple probe digital thermometer (Cole Parmer) every hour for 6 h and then at 24 h. Blood samples for plasma exposure measurement were obtained at the same time. Blood was collected via a tail snip directly into a 20-μL EDTA-coated capillary and immediately spotted onto a Whatman DMPK-C DBS card (GE Healthcare Bio-Sciences). Tail snips were performed by removing approximately 1 mm of the tail by using a scalpel. Blood flow was initiated by gentle squeezing of the tail. No analgesia or anesthesia was used during blood collections. A single sample and spot were collected per time point. The DBS cards were allowed to dry for approximately 2 h at room temperature, after which the cards were placed in a zip-top bag, stored, and shipped at ambient temperature.

[1] = 0.03 mg/kg, oral 0.03 mg/kg, FU 0.053, read-out: Unbound Concentration, Mean
[2] = 0.03 mg/kg, oral 0.03 mg/kg, dried blood spot, read-out: Concentration, Mean
[3] = 0.03 mg/kg, oral 0.03 mg/kg, FU 0.053, read-out: Unbound Concentration, individual animals
[4] = 0.03 mg/kg, oral 0.03 mg/kg, dried blood spot, read-out: Concentration, individual animals
[5] = 0.1 mg/kg, oral 0.1 mg/kg, FU 0.053, read-out: Unbound Concentration, Mean
[6] = 0.1 mg/kg, oral 0.1 mg/kg, FU 0.053, read-out: Unbound Concentration, individual animals
[7] = 0.1 mg/kg, oral 0.1 mg/kg, dried blood spot, read-out: Concentration, Mean
[8] = 0.1 mg/kg, oral 0.1 mg/kg, dried blood spot, read-out: Concentration, individual animals
[9] = 0.3 mg/kg, oral 0.3 mg/kg, FU 0.053, read-out: Unbound Concentration, Mean
[10] = 0.3 mg/kg, oral 0.3 mg/kg, FU 0.053, read-out: Unbound Concentration, individual animals
[11] = 0.3 mg/kg, oral 0.3 mg/kg, dried blood spot, read-out: Concentration, Mean
[12] = 0.3 mg/kg, oral 0.3 mg/kg, dried blood spot, read-out: Concentration, individual animals
[13] = 1 mg/kg, oral 1 mg/kg, FU 0.053, read-out: Unbound Concentration, Mean

## O=c1c2nnc(C3(C4CC4)CC3)n2c2c(n1CC1CC1)CCCC2 [BTTQ, 1-[1,1′-bi(cyclopropyl)-1-yl]-5-(cyclopropylmethyl)-6,7,8,9-tetrahydro[1,2,4]triazolo[4,3-A]quinoxaline-4(5H)-one]
[1]
  concentration at 1 h: 0.00252 µM
  concentration at 2 h: 0.00266 µM
  concentration at 3 h: 0.00223 µM
  concentration at 4 h: 0.00181 µM
  concentration at 5 h: 0.0015 µM
  concentration at 6 h: 0.00116 µM
  concentration at 24 h: 0 µM
[2]
  concentration at 1 h: 0.0475 µM
  concentration at 2 h: 0.0502 µM
  concentration at 3 h: 0.0421 µM
  concentration at 4 h: 0.0342 µM
  concentration at 5 h: 0.0283 µM
  concentration at 6 h: 0.022 µM
  concentration at 24 h: 0 µM
[3]
  concentration at 2 h: 0.00217 µM
  concentration at 3 h: 0.00204 µM
  concentration at 4 h: 0.00167 µM
  concentration at 5 h: 0.00186 µM
[4]
  concentration at 2 h: 0.0409 µM
  concentration at 3 h: 0.0384 µM
  concentration at 4 h: 0.0316 µM
  concentration at 5 h: 0.0351 µM
[5]
  concentration at 1 h: 0.0106 µM
  concentration at 2 h: 0.01 µM
  concentration at 3 h: 0.00898 µM
  concentration at 4 h: 0.00675 µM
  concentration at 5 h: 0.00513 µM
  concentration at 6 h: 0.00461 µM
  concentration at 24 h: 0.000462 µM
[6]
  concentration at 1 h: 0.0132 µM
  concentration at 2 h: 0.0117 µM
  concentration at 3 h: 0.0089 µM
  concentration at 4 h: 0.0071 µM
  concentration at 5 h: 0.00599 µM
  concentration at 6 h: 0.00462 µM
  concentration at 24 h: 0.00231 µM
[7]
  concentration at 1 h: 0.201 µM
  concentration at 2 h: 0.189 µM
  concentration at 3 h: 0.169 µM
  concentration at 4 h: 0.127 µM
  concentration at 5 h: 0.0969 µM
  concentration at 6 h: 0.087 µM
  concentration at 24 h: 0.0087 µM
[8]
  concentration at 1 h: 0.249 µM
  concentration at 2 h: 0.22 µM
  concentration at 3 h: 0.168 µM
  concentration at 4 h: 0.134 µM
  concentration at 5 h: 0.113 µM
  concentration at 6 h: 0.0871 µM
  concentration at 24 h: 0.0435 µM
[9]
  concentration at 1 h: 0.0277 µM
  concentration at 2 h: 0.0237 µM
  concentration at 3 h: 0.0166 µM
  concentration at 4 h: 0.0118 µM
  concentration at 5 h: 0.00868 µM
  concentration at 6 h: 0.00673 µM
  concentration at 24 h: 0 µM
[10]
  concentration at 1 h: 0.0242 µM
  concentration at 2 h: 0.0193 µM
  concentration at 3 h: 0.0147 µM
  concentration at 4 h: 0.0123 µM
  concentration at 5 h: 0.00875 µM
  concentration at 6 h: 0.00726 µM
[11]
  concentration at 1 h: 0.523 µM
  concentration at 2 h: 0.447 µM
  concentration at 3 h: 0.314 µM
  concentration at 4 h: 0.223 µM
  concentration at 5 h: 0.164 µM
  concentration at 6 h: 0.127 µM
  concentration at 24 h: 0 µM
[12]
  concentration at 1 h: 0.456 µM
  concentration at 2 h: 0.364 µM
  concentration at 3 h: 0.278 µM
  concentration at 4 h: 0.232 µM
  concentration at 5 h: 0.165 µM
  concentration at 6 h: 0.137 µM
[13]
  concentration at 1 h: 0.0925 µM
  concentration at 2 h: 0.0876 µM
1 mg/kg, oral 1 mg/kg, dried blood spot, read-out: Concentration, Mean
  concentration at 1 h: 1.75 µM
